The values that follow come from patent EP0013786A1, “Imidazole derivatives, pharmaceutical compositions containing them and their preparation” (SYNTEX (U.S.A.) INC., priority 1979, dated 1980).

SMILES strings stand for the structures.

Tested on in one data set: not listed separately
As to the kind of experiment: Acute oral toxicity in mice. The note with it: mouse, in vivo; single oral dose by stomach tube, aqueous carboxymethyl cellulose vehicle, observed for three weeks. How it is done: The following example illustrates acute oral toxicity of a representative compound.
Protocol: The test compound, l-[2-(2-naphthyl)-2-(methoxy)ethyl'imidazole hydrochloride, is suspended in an aqueous carboxymethyl cellulose suspending vehicle. Concentrations are adjusted so that doses can be given in volumes of 10 ml./kg. body weight. Groups of mice comprising six Swiss-Webster male mice in each group are used. A single oral dose, by stomach tube, of a final dosage of test compound is administered to the mice in each group. Each group receives a different dosage, one group serving as a control. After administration the mice are observed for a three week period.
For orientation: LD50 means the dose expected to kill half of the subjects tested. A high value points to a less toxic substance. In the case of `COC(Cn1ccnc1)c1ccc2ccccc2c1.Cl` (stereo not drawn) [1-[2-(2-naphthyl)-2-(methoxy)ethyl]imidazole hydrochloride], the 50% lethal dose (LD50) at 504 h was about 100 mg/kg.

The subject of the next data set is male Hilltop ICR-derived mice. As to the kind of experiment: Maximal electroshock test in mice. The class given is in vivo. As to conditions: Mus musculus, ip, 0.25 h; dosed intraperitoneally in saline 15 minutes prior to transcorneal maximal electroshock (50 milliamps, 0.2 seconds); antagonism of tonic extension; read-out: ED50 (95% confidence limits). The method, then: This test was performed in the standard manner, essentially as described by Swinyard et al., J. Pharm. Exp. Ther., Vol. 106, pp. 319-330 (1952). Groups of 8-10 male Hilltop ICR-derived mice weighing 20-30 grams were dosed intraperitoneally with a solution or suspension of drug in saline 15 minutes prior to a transcorneal maximal electroshock (50 milli- amps, 0.2 seconds). […] An active compound was capable of antagonizing the occurrence of the tonic extension which occurred immediately after the electroshock.
As a reminder, the ED50 is the dose at which the effect has come halfway, by size or by number of responders. In the case of `c1ccc(OC(Cn2ccnc2)c2ccc3ccccc3c2)cc1` (stereo not drawn) [1-[2-(2-naphthyl)-2-(phenoxy)ethyl]imidazole], the median effective dose (ED50) was found to be 15.1 mg/kg. Still for that read-out and setting: then `Cl.Clc1ccc(OC(Cn2ccnc2)c2ccc3ccccc3c2)cc1` (stereo not drawn) [1[2-(2-naphthyl)-2-(4-chlorophenoxy)ethyl]imidazole hydrochloride], with 46.3 mg/kg; and `COC(Cn1ccnc1)c1cccc2ccccc12` (stereo not drawn) [1-[2-(1-naphthyl)-2-(methoxy)ethyl]imidazole], with 19.4 mg/kg; and `CSC(Cn1ccnc1)c1ccc2ccccc2c1` (stereo not drawn) [1-[2-(2-naphthyl)-2-(methylthio)ethyl]imidazole], with 37.1 mg/kg. Same read-out and setting: then `COC(Cn1ccnc1)c1ccc2ccccc2c1.Cl` (stereo not drawn) [1-[2-(2-naphthyl)-2-(methoxy)ethyl]imidazole hydrochloride], with 10.4 mg/kg; and `Cc1ccccc1OC(Cn1ccnc1)c1ccc2ccccc2c1` (stereo not drawn) [1-[2-(2-naphthyl)-2-(2-methylphenoxy)ethyl]imidazole], with 32.6 mg/kg; and `CCCCOC(Cn1ccnc1)c1cccc2ccccc12` (stereo not drawn) [1-[2-(1-naphthyl)-2-(n-butoxy)ethyl]imidazole], with 16 mg/kg. In the case of `CCOC(Cn1ccnc1)c1ccc2ccccc2c1` (stereo not drawn) [1-[2-(2-naphthyl)-2-(ethoxy)ethyl]imidazole], the median effective dose (ED50) amounted to 11.4 mg/kg.
